ChEMBL document CHEMBL1201862, “PubChem BioAssay data set” (2004)
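All cell lines were grown in 96-well plates and treated with compound for 48 hours. Abbreviation: GI50, concentration required for 50% inhibition of growth.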 The source made the active and inactive calls. No stated cut-off is given here; in the data, active = GI50 up to about 1.1 µM and inactive = higher.

Assays:
Assay in all cases: NCI-60 cell line screen, 48 h
786-0 = test system: 786-0
A498 = test system: A498
A549 = test system: A549
ACHN = test system: ACHN
BT-549 = test system: BT-549
CAKI-1 = test system: CAKI-1
CCRF-CEM = test system: CCRF-CEM
COLO 205 = test system: COLO 205
DU-145 = test system: DU-145
EKVX = test system: EKVX
HCT-116 = test system: HCT-116
HCT-15 = test system: HCT-15
HL-60 = test system: HL-60
HOP-62 = test system: HOP-62
HT-29 = test system: HT-29
Hs-578T = test system: Hs-578T
IGROV-1 = test system: IGROV-1
K562 = test system: K562
LOX IMVI = test system: LOX IMVI
M14 = test system: M14
MCF7 = test system: MCF7
MDA-MB-231 = test system: MDA-MB-231
MDA-MB-435 = test system: MDA-MB-435
MDA-N = test system: MDA-N
MOLT-4 = test system: MOLT-4
Malme-3M = test system: Malme-3M
NCI-H23 = test system: NCI-H23
NCI-H522 = test system: NCI-H522
NCI/ADR-RES = test system: NCI/ADR-RES
OVCAR-3 = test system: OVCAR-3
OVCAR-4 = test system: OVCAR-4
OVCAR-5 = test system: OVCAR-5
OVCAR-8 = test system: OVCAR-8
PC-3 = test system: PC-3
RPMI-8226 = test system: RPMI-8226
RXF 393 = test system: RXF 393
SF-268 = test system: SF-268
SF-295 = test system: SF-295
SF-539 = test system: SF-539
SK-MEL-28 = test system: SK-MEL-28
SK-MEL-2 = test system: SK-MEL-2
SK-MEL-5 = test system: SK-MEL-5
SK-OV-3 = test system: SK-OV-3
SN12C = test system: SN12C
SNB-75 = test system: SNB-75
SR = test system: SR
SW-620 = test system: SW-620
T47D = test system: T47D
TK-10 = test system: TK-10
U-251 = test system: U-251
UACC-62 = test system: UACC-62
UO-31 = test system: UO-31
HCC 2998 = test system: HCC 2998
KM12 = test system: KM12
NCI-H226 = test system: NCI-H226
NCI-H460 = test system: NCI-H460
SNB-19 = test system: SNB-19
UACC-257 = test system: UACC-257

For `CCC(C)N1CN(c2ccccc2)C2(CCN(CCCC(=O)c3ccc(F)cc3)CC2)C1=O` (stereo not given), the GI50 (786-0) was > 100 µM (inactive), the GI50 (A498) was 2.82 µM (inactive) and the GI50 (A549) was 6.03 µM (inactive). For the same compound, the GI50 (ACHN) was 1.68 µM (inactive), the GI50 (BT-549) was 13.1 µM (inactive) and the GI50 (CAKI-1) was 2.25 µM (inactive). The GI50 (CCRF-CEM) was 0.64 µM (active), the GI50 (COLO 205) was 0.193 µM (active) and the GI50 (DU-145) was 0.927 µM (active). The GI50 (EKVX) was 10.8 µM (inactive), the GI50 (HCT-116) was 0.697 µM (active) and the GI50 (HCT-15) was 5.33 µM. For the same compound, the GI50 (HL-60) was 4.76 µM (inactive), the GI50 (HOP-62) was 1.87 µM (inactive) and the GI50 (HT-29) was 0.429 µM (active). For the same compound, the GI50 (Hs-578T) was 13.7 µM (inactive), the GI50 (IGROV-1) was 3.02 µM (inactive) and the GI50 (K562) was 9.18 µM (inactive). The GI50 (LOX IMVI) was 2.74 µM (inactive), the GI50 (M14) was 14.3 µM (inactive) and the GI50 (MCF7) was 0.381 µM (active). For the same compound, the GI50 (MDA-MB-231) was 10.8 µM (inactive), the GI50 (MDA-MB-435) was 13.9 µM (inactive) and the GI50 (MDA-N) was 11.7 µM (inactive). The GI50 (MOLT-4) was 3.92 µM (inactive), the GI50 (Malme-3M) was 14.7 µM (inactive) and the GI50 (NCI-H23) was 3.57 µM (inactive). The GI50 (NCI-H522) was 7.85 µM (inactive), the GI50 (NCI/ADR-RES) was 83 µM (inactive) and the GI50 (OVCAR-3) was 11.9 µM (inactive). For the same compound, the GI50 (OVCAR-4) was 3.03 µM (inactive), the GI50 (OVCAR-5) was 0.839 µM (active) and the GI50 (OVCAR-8) was > 10 µM (inactive). For the same compound, the GI50 (PC-3) was 10.6 µM (inactive), the GI50 (RPMI-8226) was 5.52 µM (inactive) and the GI50 (RXF 393) was 14.2 µM (inactive). The GI50 (SF-268) was 6.7 µM (inactive), the GI50 (SF-295) was 4.55 µM (inactive) and the GI50 (SF-539) was 7.71 µM (inactive). For the same compound, the GI50 (SK-MEL-28) was 17.4 µM (inactive), the GI50 (SK-MEL-2) was 14.9 µM (inactive) and the GI50 (SK-MEL-5) was 1.19 µM (inactive). For the same compound, the GI50 (SK-OV-3) was 9.29 µM (inactive), the GI50 (SN12C) was 3.88 µM (inactive) and the GI50 (SNB-75) was 19.5 µM (inactive). The GI50 (SR) was 5.98 µM (inactive), the GI50 (SW-620) was 3.77 µM (inactive) and the GI50 (T47D) was 1.68 µM (inactive). For the same compound, the GI50 (TK-10) was 4.85 µM (inactive), the GI50 (U-251) was 4.47 µM (inactive) and the GI50 (UACC-62) was 16.6 µM (inactive). The GI50 (UO-31) was 4.17 µM (inactive).

For `COc1ccc(OC)c(-c2nc(O)c3ccccc3n2)c1`, the GI50 (786-0) was > 100 µM (inactive), the GI50 (A498) was > 100 µM (inactive) and the GI50 (A549) was > 100 µM (inactive). The GI50 (ACHN) was > 100 µM (inactive), the GI50 (BT-549) was > 100 µM (inactive) and the GI50 (CAKI-1) was > 100 µM (inactive). For the same compound, the GI50 (CCRF-CEM) was > 100 µM (inactive), the GI50 (COLO 205) was > 100 µM (inactive) and the GI50 (DU-145) was > 100 µM (inactive). For the same compound, the GI50 (EKVX) was > 100 µM (inactive), the GI50 (HCC 2998) was > 100 µM (inactive) and the GI50 (HCT-116) was > 100 µM (inactive). For the same compound, the GI50 (HCT-15) was > 100 µM, the GI50 (HOP-62) was > 100 µM (inactive) and the GI50 (HT-29) was > 100 µM (inactive). For the same compound, the GI50 (Hs-578T) was > 100 µM (inactive), the GI50 (IGROV-1) was > 100 µM (inactive) and the GI50 (K562) was > 100 µM (inactive). For the same compound, the GI50 (KM12) was 42.4 µM (inactive), the GI50 (M14) was > 100 µM (inactive) and the GI50 (MCF7) was > 100 µM (inactive). For the same compound, the GI50 (MDA-MB-231) was > 100 µM (inactive), the GI50 (MDA-MB-435) was > 100 µM (inactive) and the GI50 (MDA-N) was > 100 µM (inactive). For the same compound, the GI50 (MOLT-4) was 40.6 µM (inactive), the GI50 (Malme-3M) was > 100 µM (inactive) and the GI50 (NCI-H226) was > 100 µM (inactive). The GI50 (NCI-H23) was > 100 µM (inactive), the GI50 (NCI-H460) was > 100 µM (inactive) and the GI50 (NCI/ADR-RES) was 98.4 µM (inactive). The GI50 (OVCAR-3) was > 100 µM (inactive), the GI50 (OVCAR-4) was > 100 µM (inactive) and the GI50 (OVCAR-5) was > 100 µM (inactive). For the same compound, the GI50 (OVCAR-8) was > 100 µM (inactive), the GI50 (PC-3) was > 100 µM (inactive) and the GI50 (RPMI-8226) was 78.3 µM (inactive). The GI50 (RXF 393) was 15 µM (inactive), the GI50 (SF-268) was > 100 µM (inactive) and the GI50 (SF-295) was > 100 µM (inactive). The GI50 (SF-539) was 50.7 µM (inactive), the GI50 (SK-MEL-2) was > 100 µM (inactive) and the GI50 (SK-MEL-5) was 74 µM (inactive). For the same compound, the GI50 (SK-OV-3) was > 100 µM (inactive), the GI50 (SN12C) was > 100 µM (inactive) and the GI50 (SNB-19) was > 100 µM (inactive). For the same compound, the GI50 (SNB-75) was > 100 µM (inactive), the GI50 (SR) was 67 µM (inactive) and the GI50 (SW-620) was > 100 µM (inactive). For the same compound, the GI50 (T47D) was 25.6 µM (inactive), the GI50 (U-251) was > 100 µM (inactive) and the GI50 (UACC-257) was > 100 µM (inactive). The GI50 (UACC-62) was 66.8 µM (inactive) and the GI50 (UO-31) was > 100 µM (inactive).
